Test results: patent US20250388542A1, “ANALOGUES OF PENTAMIDINE AND USES THEREFOR” (Auransa Inc., priority 2018, published 2025)

What was measured:
Assay type in all cases: cell-based
Hep3B-luc = test: CellTiter-Glo cell viability, liver cell lines, 8 days; settings: full growth media
Method: (§1) The objective of this study is to investigate the effect of Compound 1 on cell viability of various types of liver cancer. Ten (10) different liver cancer cell lines were employed in the study. Each liver cell line shown in Table 4 was treated with Compound 1, pentamidine, as reference control, a standard of care (cisplatin) and culture medium contains 0.2% [v/v] DMSO vehicle control and IC50 values were obtained as described above. The raw data values from the CellTiter-Glo™ cell viability assay expressed in relative luminescence units were normalized to the vehicle for each individual plate, and any reduction in luminescence indicated a decrease in viability (%). The data was analyzed in GraphPad PRISM using a non-linear sigmoidal plot with variable slope (asymmetric four-point linear regression), and an IC50 value for each compound was generated. The experiment tested pentamidine, compound 1, and standard-of-care control Cisplatin in full growth media for 8 days. Cells were initially treated with the test compounds on Day 0, and the cells were then replenished with fresh compound dilutions on Day 3. Pentamidine, Compound 1, and cisplatin were tested at 9 concentration points; 100, 33.33, 11.11, 3.70, 1.23, 0.41, 0.14, 0.05, and 0.02 μM (final DMSO concentration=0.5%). In particular, the IC50 values of pentamidine and Compound 1 were 0.8 and 0.6 μM in Hep3B-luc, respectively.
The experiment tested pentamidine, Compound 1, and standard of care control, cisplatin, in full growth media for 8 days. Hep-3b cells were initially treated with the test compounds on Day 0, and the cells were then replenished with fresh compound dilutions on Day 3. […] The raw data values from the CellTiter-Glo™ cell viability assay expressed in relative luminescence units were normalized to the vehicle for each individual plate, and any reduction in luminescence indicated a decrease in viability (%). The data was analyzed in GraphPad PRISM using a non-linear sigmoidal plot with variable slope (asymmetric four-point linear regression), and an IC50 value for each compound was generated. […]

HCCLM3 = test: as above; settings: Homo sapiens, 192 h; HCCLM3, 8 days
Method: as §1

HEP3B2.7-1 = test: as above; settings: HEP3B2.7-1, Table 4
Method: as §1

HUH1 = test: as above; settings: Homo sapiens, HuH-1, 192 h; HUH1, 8 days
Method: as §1

HUH7 = test: as above; settings: Homo sapiens, Huh-7, 192 h; HUH7, 8 days
Method: as §1

Hep3B = test: as above; settings: Homo sapiens, 192 h
Method: as §1

HepG2 = test: as above; settings: Homo sapiens, 192 h; HepG2, 8 days
Method: as §1

MHCC97H = test: as above; settings: Homo sapiens, 192 h
Method: as §1

SK-HEP-1 = test: as above; settings: Homo sapiens
Method: as §1

DU4475 = test: CellTiter-Glo cytotoxicity, cancer cell line panel / breast cancer study; settings: DU4475, Breast carcinoma
Method: (§2) The objective of this study is to investigate potential cell killing effect of Compounds 1-15 on 3 cancer cell lines. 50% inhibition concentration (IC50) was determined for these compounds in various cancer cell lines using CellTiter-Glo™ luminescent cell viability assay at different compound concentrations. Each cell line (e.g., NCI-H209; NCI-H69; and SW1271) was treated with Compounds 1-15 and culture medium contains 0.2% [v/v] DMSO vehicle control. All the cells were cultured in the media supplemented with 10-20% fetal bovine serum at 37° C., 5% CO2 and 95% humidity.
(§3) The objective of this study is to investigate the effect of Compound 1 on cytotoxicity against 61 different types of cancer cell lines. IC50 were values were obtained using CellTiter-Glo™ as described above. Each cell line shown in Table 3 was treated with Compound 1, a standard chemotherapy drug, cisplatin, as reference control and culture medium contains 0.2% [v/v] DMSO vehicle control. All cancer cell lines were cultured in media supplemented with 10-20% fetal bovine serum at 37° C., 5% CO2 and 95% humidity.
(§4) The objective of this study is to investigate the effect of Compound 1 on cell viability of various types of breast cancer. Four different breast cancer cell lines were employed in the study. Each cell line shown in Table 5 was treated with Compound 1 and standard of care (cisplatin) and culture medium contains 0.2% [v/v] DMSO vehicle control and IC50 values were obtained as described above. The raw data values from the CellTiter-Glo™ cell viability assay expressed in relative luminescence units were normalized to the vehicle for each individual plate, and any reduction in luminescence indicated a decrease in viability (%). The data was analyzed in GraphPad PRISM using a non-linear sigmoidal plot with variable slope (asymmetric four-point linear regression), and an IC50 value for each compound was generated. The experiment tested pentamidine, compound 1, and standard-of-care control Cisplatin in full growth media for 8 days. Cells were initially treated with the test compounds on Day 0, and the cells were then replenished with fresh compound dilutions on Day 3. Pentamidine, Compound 1, and cisplatin were tested at 9 concentration points; 100, 33.33, 11.11, 3.70, 1.23, 0.41, 0.14, 0.05, and 0.02 μM (final DMSO concentration=0.5%).

HCC1954 = test: as above; settings: HCC1954, Ductal breast carcinoma
Method: as §2, §3, §4

ZR-75-1 = test: as above; settings: ZR-75-1, Invasive ductal carcinoma
Method: as §2, §3, §4

Row | IC50 (Hep3B-luc; Hep 3B-Luc, 192 h) [nM] | IC50 (HCCLM3) [nM] | IC50 (HEP3B2.7-1) [nM] | IC50 (HUH1) [nM] | IC50 (HUH7) [nM] | IC50 (Hep3B) [nM] | IC50 (HepG2) [nM] | IC50 (SK-HEP-1; SK-HEP1, SK-HEP-1, first listing in Table 4) [nM] | IC50 (SK-HEP-1; SK-HEP1, SK-HEP-1, second listing in Table 4) [nM] | Structure (SMILES) | IC50 (MHCC97H) [nM] | IC50 (DU4475) [nM] | IC50 (HCC1954) [nM] | IC50 (ZR-75-1) [nM] | IC50 (Hep3B-luc) [nM]
1 | 800 | 6900 | 280 | 1790 | 680 | 160 | 290 | 1450 | 720 | N=C(N)c1ccc(OCCCCCOc2ccc(C(=N)N)cc2)cc1 [Pentamidine, 1,5-bis(4-amidinophenoxy)pentane] | 4260 | – | – | – | –
2 | – | – | – | – | – | – | – | – | – | N.N.[Cl][Pt][Cl] [Cisplatin, cisplatin, reference compound] | – | 600 | 770 | 1020 | 5100
